Among the data in patent publication US20090306133A1, “New Acetyl Coenzyme A Carboxylase (ACC) Inhibitors And Uses In Treatments Of Obesity And Diabetes Mellitus - 087” (ASTRAZENECA AB, priority 2007, published 2009) are IC50 values, retold here.

The target in assay [1] is Human recombinant Acetyl-CoA Carboxylase 2 (ACC2) (Homo sapiens, UniProt O00763). The assay can be described thus: Assay X: ACC2 inhibition, inorganic phosphate (malachite green). Format: biochemical. To be noted: Assay X: 37° C., 1.5 h, 5 min pre-incubation. The gist of the method:
(§1)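 Human recombinant enzyme pre-incubated 5 min with compound before substrate addition; reaction run 1.5 h, then inorganic phosphate detected by malachite green absorbance at 660 nm. Ten concentrations tested in triplicate; apparent IC50 from four-parameter curve fit.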

The target of assay [2] is Human recombinant Acetyl-CoA Carboxylase 1 (ACC1) (Homo sapiens, UniProt Q13085). The assay can be described thus: Assay X: ACC1 inhibition, inorganic phosphate (malachite green). Format: biochemical. Conditions: Assay X: 37° C., 1.5 h, 5 min pre-incubation. Put shortly: as §1

Sequence of Human recombinant Acetyl-CoA Carboxylase 2 (ACC2) (O00763 whole entry): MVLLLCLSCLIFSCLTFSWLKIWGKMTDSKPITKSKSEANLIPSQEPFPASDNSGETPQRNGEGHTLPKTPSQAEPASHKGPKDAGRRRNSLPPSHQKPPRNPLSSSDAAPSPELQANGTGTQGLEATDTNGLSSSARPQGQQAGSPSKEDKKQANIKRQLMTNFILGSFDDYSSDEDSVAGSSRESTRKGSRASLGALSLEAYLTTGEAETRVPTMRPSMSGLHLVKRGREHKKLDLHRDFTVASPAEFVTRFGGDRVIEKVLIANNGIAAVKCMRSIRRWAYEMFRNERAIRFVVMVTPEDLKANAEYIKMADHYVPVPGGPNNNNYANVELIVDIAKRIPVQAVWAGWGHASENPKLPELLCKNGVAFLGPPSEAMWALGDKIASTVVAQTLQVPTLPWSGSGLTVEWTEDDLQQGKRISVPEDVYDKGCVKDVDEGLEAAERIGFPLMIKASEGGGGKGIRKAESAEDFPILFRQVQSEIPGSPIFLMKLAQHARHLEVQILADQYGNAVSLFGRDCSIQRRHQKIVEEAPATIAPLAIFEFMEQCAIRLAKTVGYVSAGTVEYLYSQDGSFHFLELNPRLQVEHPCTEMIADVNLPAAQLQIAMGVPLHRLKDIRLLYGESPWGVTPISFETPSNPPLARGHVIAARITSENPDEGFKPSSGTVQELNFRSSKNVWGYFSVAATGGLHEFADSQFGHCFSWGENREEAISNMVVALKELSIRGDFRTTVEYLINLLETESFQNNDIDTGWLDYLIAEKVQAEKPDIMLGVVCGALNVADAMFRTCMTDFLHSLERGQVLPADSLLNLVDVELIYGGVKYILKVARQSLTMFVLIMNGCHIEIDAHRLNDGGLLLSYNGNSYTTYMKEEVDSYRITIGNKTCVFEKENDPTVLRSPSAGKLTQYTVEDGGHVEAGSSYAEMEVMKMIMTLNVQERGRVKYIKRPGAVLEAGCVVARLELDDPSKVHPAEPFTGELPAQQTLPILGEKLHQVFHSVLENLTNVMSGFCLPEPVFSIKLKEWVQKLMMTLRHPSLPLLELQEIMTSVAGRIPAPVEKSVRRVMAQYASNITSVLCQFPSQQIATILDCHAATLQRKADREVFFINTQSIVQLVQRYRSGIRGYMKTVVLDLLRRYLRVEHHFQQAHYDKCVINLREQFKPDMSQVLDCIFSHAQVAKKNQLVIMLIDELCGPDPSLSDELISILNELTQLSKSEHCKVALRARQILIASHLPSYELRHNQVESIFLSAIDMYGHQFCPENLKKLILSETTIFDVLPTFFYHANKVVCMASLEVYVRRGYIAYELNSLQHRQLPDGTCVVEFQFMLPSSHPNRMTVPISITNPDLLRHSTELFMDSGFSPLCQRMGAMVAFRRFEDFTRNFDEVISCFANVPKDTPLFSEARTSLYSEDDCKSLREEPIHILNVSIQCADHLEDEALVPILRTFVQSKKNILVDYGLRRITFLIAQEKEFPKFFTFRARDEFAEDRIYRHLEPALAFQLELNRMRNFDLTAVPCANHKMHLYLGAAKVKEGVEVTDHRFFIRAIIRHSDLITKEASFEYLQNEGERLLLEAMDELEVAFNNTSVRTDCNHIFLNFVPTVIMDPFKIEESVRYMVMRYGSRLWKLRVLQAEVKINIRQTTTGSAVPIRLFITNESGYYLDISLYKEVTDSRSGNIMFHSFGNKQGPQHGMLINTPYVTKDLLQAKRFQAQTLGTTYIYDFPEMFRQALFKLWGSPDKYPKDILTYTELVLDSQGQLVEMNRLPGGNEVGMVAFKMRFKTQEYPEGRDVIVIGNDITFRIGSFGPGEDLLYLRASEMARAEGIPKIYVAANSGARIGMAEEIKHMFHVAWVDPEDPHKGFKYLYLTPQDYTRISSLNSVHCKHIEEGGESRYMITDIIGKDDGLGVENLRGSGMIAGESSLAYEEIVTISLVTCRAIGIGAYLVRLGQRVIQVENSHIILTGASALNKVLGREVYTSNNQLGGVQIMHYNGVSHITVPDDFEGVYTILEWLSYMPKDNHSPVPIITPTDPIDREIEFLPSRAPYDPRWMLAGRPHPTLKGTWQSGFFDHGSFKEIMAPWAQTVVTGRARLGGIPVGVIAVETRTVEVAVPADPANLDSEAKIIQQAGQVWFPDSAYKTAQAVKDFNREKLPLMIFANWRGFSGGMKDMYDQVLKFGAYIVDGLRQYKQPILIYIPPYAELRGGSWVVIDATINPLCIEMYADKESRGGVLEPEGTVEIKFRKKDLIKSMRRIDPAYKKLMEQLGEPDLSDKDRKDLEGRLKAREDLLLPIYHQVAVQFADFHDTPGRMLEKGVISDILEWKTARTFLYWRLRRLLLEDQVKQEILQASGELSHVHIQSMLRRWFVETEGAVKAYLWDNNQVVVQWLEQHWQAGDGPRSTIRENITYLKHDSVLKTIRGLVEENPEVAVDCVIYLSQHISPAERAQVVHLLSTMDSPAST

A word on the IC50: it is the point on the concentration scale where inhibition reaches its midpoint. Take `CC(C)(C)OC(=O)NC[C@H]1CC[C@H](CNC(=O)c2cc(N3CCNCC3)nc3ccccc23)CC1` [Example 190, tert-Butyl {[trans-4-({[(2-piperazin-1-ylquinolin-4-yl)carbonyl]amino}methyl)-cyclohexyl]methyl}carbamate]: the values for the 50% inhibitory concentration (IC50) in assay [1] and in assay [2] were 1300 nM and 13600 nM, respectively.

In the case of `CN(CCO)CCC1CCN(c2cc(C(=O)NC[C@H]3CC[C@H](CNC(=O)OC(C)(C)C)CC3)c3ccccc3n2)CC1` [Example 232, tert-Butyl({trans-4-[({[2-(4-{2-[(2-hydroxyethyl)(methyl)-amino]ethyl}piperidin-1-yl)quinolin-4-yl]carbonyl}amino)-methyl]cyclohexyl}-methyl)carbamate], the results for the half-maximal inhibitory concentration (IC50) in assay [1] and in assay [2] were 140 nM and 1290 nM, respectively.

As for `CC(C)(C)OC(=O)NC[C@H]1CC[C@H](CNC(=O)c2cc(Oc3cccnc3)nc3ccccc23)CC1` [Example 215, tert-Butyl ({trans-4-[({[2-(pyridin-3-yloxy)quinolin-4-yl]carbonyl}amino)-methyl]cyclohexyl}methyl)carbamate], the IC50 is 490 nM in assay [1] and more than 20000 nM in assay [2].

For the compound `CC(C)(C)OC(=O)NC[C@H]1CC[C@H](CNC(=O)c2cc(-c3ccc(N)nc3)nc(-c3cccc(CN)c3)c2)CC1` [Example 241, tert-Butyl [(trans-4-{[({6′-amino-6-[3-(aminomethyl)phenyl]-2,3′-bipyridin-4-yl}carbonyl)amino]methyl}cyclohexyl)methyl]carbamate], the IC50 in assay [1] was determined as 110 nM; in assay [2], 260 nM.

`O=C(NC[C@H]1CC[C@H](CNC(=O)c2cc(-c3ccc(NCCO)nc3)nc3ccccc23)CC1)O[C@H]1CCOC1` [Example 200, (3S)-Tetrahydrofuran-3-yl{[trans-4-({[(2-{6-[(2-hydroxyethyl)amino]pyridin-3-yl}quinolin-4-yl)carbonyl]amino}methyl)cyclohexyl]methyl}-carbamate]: the values for the IC50 in assay [1] and in assay [2] were 1200 nM and 4500 nM, respectively.

For the compound `CC(C)(C)OC(=O)NC[C@H]1CC[C@H](CNC(=O)c2cc(-c3ccc(N4CCCC(O)C4)nc3)nc3ccccc23)CC1` (relative stereo) [Example 157, tert-Butyl[(trans-4-{[({2-[6-(3-hydroxypiperidin-1-yl)pyridin-3-yl]-quinolin-4-yl}carbonyl)amino]methyl}cyclohexyl)methyl]carbamate], the half-maximal inhibitory concentration (IC50) worked out at 180 nM in assay [1] and 410 nM in assay [2].

For the compound `CC(C)(C)OC(=O)NC[C@H]1CC[C@H](CNC(=O)c2cc(-c3cn[nH]c3)nc(-c3cccc(CN)c3)c2)CC1` [Example 239, tert-Butyl [(trans-4-{[({2-[3-(aminomethyl)phenyl]-6-(1H-pyrazol-4-yl)pyridin-4-yl}carbonyl)amino]methyl}cyclohexyl)methyl]carbamate], the IC50 in assay [1] stood at 350 nM; in assay [2], 740 nM.

Take `CN1CCN(c2ccc(-c3cc(C(=O)NC[C@H]4CC[C@H](CNC(=O)OCCC#N)CC4)c4ccccc4n3)cn2)CC1` [Example 132, 2-Cyanoethyl[(trans-4-{[({2-[6-(4-methylpiperazin-1-yl)pyridin-3-yl]quinolin-4-yl}carbonyl)amino]methyl}cyclohexyl)methyl]carbamate]: the 50% inhibitory concentration (IC50) in assay [1] worked out at 1860 nM; in assay [2] it was 5760 nM.

Take `O=C(NC[C@H]1CC[C@H](CNC(=O)c2cc(-c3ccc(N4CC[C@@H](O)C4)nc3)nc3ccccc23)CC1)OC1CCOCC1` [Example 202, Tetrahydro-2H-pyran-4-yl {[trans-4-({[(2-{6-[(3R)-3-hydroxypyrrolidin-1-yl]pyridin-3-yl}quinolin-4-yl)carbonyl]amino}methyl)cyclohexyl]methyl}-carbamate]: the results for the IC50 in assay [1] and in assay [2] were 510 nM and 1100 nM, respectively.

As to `CC[C@H](Nc1ccc(-c2cc(C(=O)NC[C@H]3CC[C@H](CNC(=O)OC(C)(C)C)CC3)c3ccccc3n2)cn1)C(N)=O` [Example 169, tert-Butyl({trans-4-[({[2-(6-{[(1S)-1-carbamoylpropyl]amino}pyridin-3-yl)-quinolin-4-yl]-carbonyl}amino)methyl]cyclohexyl}methyl)carbamate], the IC50 is 650 nM in assay [1] and 1370 nM in assay [2].

For `CC(C)(C)OC(=O)NC[C@H]1CC[C@H](CNC(=O)c2cc(N3CCC(CCN4CC(O)C4)CC3)nc3ccccc23)CC1` [Example 233, tert-Butyl {[trans-4-({[(2-{4-[2-(3-hydroxyazetidin-1-yl)ethyl]piperidin-1-yl}quinolin-4-yl)carbonyl]amino}methyl)cyclohexyl]methyl}carbamate], the IC50 in assay [1] was 100 nM; in assay [2], 1020 nM.

As to `CC(C#N)OC(=O)NC[C@H]1CC[C@H](CNC(=O)c2cc(-c3ccc(N4CCN(C)CC4)nc3)nc3ccccc23)CC1` (stereo partly drawn) [Example 121, 1-Cyanoethyl[(trans-4-{[({2-[6-(4-methylpiperazin-1-yl)pyridin-3-yl]quinolin-4-yl}carbonyl)amino]methyl}cyclohexyl)methyl]carbamate], the IC50 in assay [1] amounted to 1370 nM; in assay [2], 4770 nM.

Consider `CN1CCC(COc2cc(C(=O)NC[C@H]3CC[C@H](CNC(=O)OC(C)(C)C)CC3)c3ccccc3n2)CC1` [Example 216, tert-Butyl [(trans-4-{[({2-[(1-methylpiperidin-4-yl)methoxy]quinolin-4-yl}carbonyl)amino]methyl}cyclohexyl)methyl]-carbamate], for which the half-inhibitory concentration (IC50) was determined as 720 nM in assay [1] and 3550 nM in assay [2].

As to `COCCNc1ccc(-c2cc(C(=O)NC[C@H]3CC[C@H](CNC(=O)OC(C)(C)C)CC3)c3ccccc3n2)cn1` [Example 156, tert-Butyl{[trans-4-({[(2-{6-[(2-methoxyethyl)amino]pyridin-3-yl}quinolin-4-yl)carbonyl]amino}methyl)cyclohexyl]methyl}carbamate], the concentration for half-maximal inhibition (IC50) was 350 nM in assay [1] and 810 nM in assay [2].

Consider `CN(C)CCC1CCN(c2cc(C(=O)NC[C@H]3CC[C@H](CNC(=O)OCC(C)(C)C)CC3)c3ccccc3n2)CC1` [Example 212, 2,2-Dimethylpropyl {[trans-4-({[(2-{4-[2-(dimethylamino)ethyl]piperidin-1-yl}quinolin-4-yl)carbonyl]amino}methyl)cyclohexyl]methyl}carbamate], for which the IC50 was determined as 120 nM in assay [1] and 1190 nM in assay [2].

As to `CN1CCN(c2ccc(-c3cc(C(=O)NC[C@H]4CC[C@H](CNC(=O)OCCn5cccn5)CC4)c4ccccc4n3)cn2)CC1` [Example 129, 2-(1H-Pyrazol-1-yl)ethyl-[(trans-4-{[({2-[6-(4-methylpiperazin-1-yl)pyridin-3-yl]quinolin-4-yl}carbonyl)amino]methyl}cyclohexyl)methyl]carbamate], the IC50 in assay [1] worked out at 2440 nM; in assay [2], 7940 nM.

In the case of `COCCN(C)CCC1CCN(c2cc(C(=O)NC[C@H]3CC[C@H](CNC(=O)OC(C)(C)C)CC3)c3ccccc3n2)CC1` [Example 227, tert-Butyl({trans-4-[({[2-(4-{2-[(2-methoxyethyl)(methyl)-amino]ethyl}piperidin-1-yl)quinolin-4-yl]carbonyl}amino)-methyl]cyclohexyl}-methyl)carbamate], the half-maximal inhibitory concentration (IC50) in assay [1] was determined as 230 nM; in assay [2], 1630 nM.
